Source: the supplement of paper PMC10307832

What was measured:
Experiment in all cases: relative viability (nuclei count vs DMSO), 5 days (fraction); higher = more cells survive
[1] = compound: C(C(=O)C(=O)O)Br [Bromopyruvate] + CS(=O)(=O)CCNCc1ccc(-c2ccc3ncnc(Nc4ccc(OCc5cccc(F)c5)c(Cl)c4)c3c2)o1 [Lapatinib] (partner 2 µM)
Summary of the method: (§1)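 Lung cancer cell lines were seeded in 1536-well plates and dosed by pin tool the next day, with either a single drug or a fixed anchor-drug dose combined with five library-drug doses (not always all listed) spaced in √10 steps. Five days later, one step fixed the cells and stained their nuclei (final 0.05% Triton X-100, 1% formaldehyde, 1 ug/ml Hoechst), and nuclei were counted on 4× images. Relative viability is the nuclei count in treated wells divided by the count in vehicle wells, and each value is the median of duplicate plates.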

[2] = compound: CC(O)(CS(=O)(=O)c1ccc(F)cc1)C(=O)Nc1ccc(C#N)c(C(F)(F)F)c1 [Bicalutamide] + Cc1nc(Nc2ncc(C(=O)Nc3c(C)cccc3Cl)s2)cc(N2CCN(CCO)CC2)n1 [Dasatinib] (partner 0.075 µM)
Summary of the method: as §1

[3] = compound: C(C(=O)C(=O)O)Br [Bromopyruvate] + CC1(C)CCC(c2ccc(Cl)cc2)=C(CN2CCN(c3ccc(C(=O)NS(=O)(=O)c4ccc(N[C@H](CCN5CCOCC5)CSc5ccccc5)c(S(=O)(=O)C(F)(F)F)c4)cc3)CC2)C1 [Navitoclax] (partner 0.5 µM)
Summary of the method: as §1

[4] = compound: CC(O)(CS(=O)(=O)c1ccc(F)cc1)C(=O)Nc1ccc(C#N)c(C(F)(F)F)c1 [Bicalutamide] + CCNC(=O)c1noc(-c2cc(C(C)C)c(O)cc2O)c1-c1ccc(CN2CCOCC2)cc1 [Luminespib] (partner 0.01 µM)
Summary of the method: as §1

Cell Line	relative viability ([1]; first compound 1 µM)	relative viability ([1]; first compound 3.162 µM)	relative viability ([1]; first compound 10 µM)	relative viability ([1]; first compound 31.62 µM)	relative viability ([1]; first compound 100 µM)	relative viability ([2]; first compound 0.08 µM)	relative viability ([2]; first compound 0.253 µM)	relative viability ([2]; first compound 0.8 µM)	relative viability ([2]; first compound 2.53 µM)	relative viability ([3]; first compound 1 µM)	relative viability ([3]; first compound 3.162 µM)	relative viability ([3]; first compound 10 µM)	relative viability ([3]; first compound 31.62 µM)	relative viability ([3]; first compound 100 µM)	relative viability ([4]; first compound 0.08 µM)	relative viability ([4]; first compound 0.253 µM)	relative viability ([4]; first compound 0.8 µM)	relative viability ([4]; first compound 2.53 µM)
COR-L23	0.744	0.869	1.43	0.846	0.87	0.628	0.513	0.407	0.476	0.77	1.05	1.12	0.851	0.401	0.718	0.699	0.764	0.649
NCI-H2126	0.752	0.78	0.764	0.787	0.751	0.628	0.581	0.632	0.555	0.827	0.9	0.906	0.856	0.873	0.923	0.904	1.16	0.915
LC-2-ad	0.977	0.982	0.933	0.921	0.971	0.693	0.514	0.701	0.514	0.436	0.404	0.35	0.459	0.476	1.1	0.954	1.03	1.06
NCI-H1915	0.95	0.98	0.976	0.98	0.991	0.317	0.29	0.301	0.252	0.827	0.765	0.792	0.824	0.801	0.761	0.69	0.934	0.762
NCI-H1793	0.593	1.11	0.674	0.842	0.59	0.369	0.349	0.486	0.377	0.673	0.376	0.377	0.516	0.511	0.198	0.364	0.203	0.165
NCI-H2085	0.761	0.784	0.771	0.815	0.707	0.227	0.261	0.267	0.228	1.08	1.19	1.25	1.07	1.05	0.59	0.587	0.459	0.448
COR-L 105	0.393	0.385	0.362	0.353	0.392	0.325	0.257	0.325	0.285	0.757	0.962	0.689	0.688	0.549	1.04	0.721	0.911	0.652
SK-LU-1	1.06	0.806	0.81	0.823	0.88	0.175	0.206	0.177	0.169	0.866	0.971	0.935	0.734	0.574	0.189	0.188	0.217	0.188
LXF-289	0.967	0.879	0.935	0.914	0.959	0.214	0.25	0.227	0.194	0.983	0.987	0.898	0.99	1.02	0.667	0.6	0.637	0.694
PC-3 [JPC-3]	0.474	0.44	0.441	0.468	0.467	1.04	0.946	1.05	0.947	0.751	0.811	0.838	0.727	0.828	0.665	0.659	0.667	0.734
NCI-H1666	0.823	0.666	0.677	0.701	0.557	0.915	0.789	0.767	0.731	0.957	1.12	1.03	1.01	0.754	1.04	0.989	1.03	0.961
NCI-H2087	1.06	1.02	1.09	0.91	1.05	0.851	0.87	1.05	0.816	0.974	1.08	0.987	0.966	1.02	0.157	0.153	0.168	0.259
NCI-H1734	1.08	0.944	1.26	1.08	1.12	0.454	0.4	0.561	0.367	0.76	0.799	0.975	0.809	0.886	0.193	0.174	0.212	0.186
NCI-H2228	1.45	0.99	1.2	1.12	1.1	0.476	0.479	0.522	0.55	0.936	0.698	0.864	0.469	0.63	0.231	0.241	0.169	0.14
EMC-BAC-2	0.832	0.922	1	0.833	0.912	0.347	0.287	0.33	0.298	1.02	1.17	1.31	1.15	1.25	1.13	1.14	1.17	1.06
NCI-H2009	0.903	0.783	0.877	0.874	0.909	0.337	0.321	0.278	0.222	1.15	1.26	1.22	1.06	0.899	1.06	1.01	0.987	1.04
NCI-H596	1.11	1.08	1.15	1.01	1.16	0.576	0.599	0.798	0.598	0.871	0.964	1.1	0.877	1.07	1.08	0.945	1.28	1.14
NCI-H1792	0.949	0.972	1.06	0.674	0.835	0.84	0.509	1.06	0.856	0.716	0.719	0.787	0.486	0.542	0.411		0.571	0.236
SW 1573	1.11	1.03	1.09	1.05	0.904	0.525		0.683	0.275	0.927	1.17	1.02	1.11	0.487	0.506	0.213	0.209	0.181
NCI-H1650	0.765	0.69	0.75	0.81	0.815	0.34	0.245	0.381	0.301	1.09	1.31	1.42	1.47	1.19	0.181	0.165	0.171	0.196
NCI-H2023	0.803	0.922	0.743	0.877	0.793	0.599	0.48	0.758	0.488	0.97	1.06	1.06	1.09	1.06	0.868	0.703	1	0.634
LOU-NH91	0.818	0.706	0.735	0.815	0.824	0.635	0.43	0.605	0.568	0.835	0.611	0.759	0.84	0.783	0.367	0.295	0.331	0.322
NCI-H3122	0.982	1.05	0.961	1.01	1.01	0.922	0.791	0.938	0.889	1.03	0.974	1.08	1.01	1.03	0.0979	0.0782	0.126	0.106
LCLC-97TM1			0.864	1.28	0.82	0.954	0.853	0.813	0.817			0.538	0.492	0.316	0.793	0.659	0.941	0.829
NCI-H647	1.02	0.972	1.19	1.15	0.916	0.187	0.173	0.208	0.139	1.17	1.3	1.49	1.18	1.19	0.126	0.114	0.255	0.112
NCI-H838	1.05	0.962	1.01	1.01	0.936	0.319	0.303	0.392	0.272	1.11	1.16	1.3	1.17	1.28	0.282	0.226	0.331	0.309
H3255	0.272	0.321	0.239	0.249	0.273	0.491	0.39		0.359	0.575	0.603	0.512	0.504	0.512	0.827	0.857		0.813
SK-MES-1	0.417	0.466	0.488	0.432	0.465	0.343	0.358	0.427	0.301	1.1	1.25	1.17	1.29	1.26	0.609	0.736	0.97	0.709
NCI-H1437	0.845	0.768	1.1	0.801	0.804	0.412	0.406	0.466	0.447	1.11	1.09	1.11	1.09	1.17	1.17	1.15	1.1	1.05
LU99A	1.05	0.898	1.12	0.992	1.09	0.569	0.536	0.738	0.444	0.767	0.696	0.834	0.558	0.411	0.268	0.236	0.286	0.205
